Results taken from ChEMBL document CHEMBL5154917 (J Med Chem, 2022).
Calls of active or inactive are those of the source. The rule behind the calls is not given here.

How the values were obtained:
MKN-1 [1] = experiment: Antitumor activity against human MKN-1 cells xenografted in CB17-SCID mouse assessed as tumor growth inhibition at 25 mg/kg, ip qd for 18 consecutive days and measured once every 2 days relative to control; type: functional; conditions: MKN-1, 432 h, time 18 day, read-out: TGI
Homo sapiens [2] = species on record: Homo sapiens; experiment: Binding affinity to human partial length FLT3 ITD D835V mutant expressed in mammalian expression system assessed as residual activity at 1 uM by KINOMEscan assay relative to control
[3] = Solubility of compound in organic solvents; type: physicochemical
[4] = target: T1, Serine/threonine-protein kinase RIO1 (Homo sapiens) (UniProt Q9BRS2); experiment: Binding affinity to wild-type human full length RIOK1 (M1 to K568 residues) expressed in bacterial expression system assessed as residual activity at 1 uM by KINOMEscan assay relative to control
T1 sequence (whole entry): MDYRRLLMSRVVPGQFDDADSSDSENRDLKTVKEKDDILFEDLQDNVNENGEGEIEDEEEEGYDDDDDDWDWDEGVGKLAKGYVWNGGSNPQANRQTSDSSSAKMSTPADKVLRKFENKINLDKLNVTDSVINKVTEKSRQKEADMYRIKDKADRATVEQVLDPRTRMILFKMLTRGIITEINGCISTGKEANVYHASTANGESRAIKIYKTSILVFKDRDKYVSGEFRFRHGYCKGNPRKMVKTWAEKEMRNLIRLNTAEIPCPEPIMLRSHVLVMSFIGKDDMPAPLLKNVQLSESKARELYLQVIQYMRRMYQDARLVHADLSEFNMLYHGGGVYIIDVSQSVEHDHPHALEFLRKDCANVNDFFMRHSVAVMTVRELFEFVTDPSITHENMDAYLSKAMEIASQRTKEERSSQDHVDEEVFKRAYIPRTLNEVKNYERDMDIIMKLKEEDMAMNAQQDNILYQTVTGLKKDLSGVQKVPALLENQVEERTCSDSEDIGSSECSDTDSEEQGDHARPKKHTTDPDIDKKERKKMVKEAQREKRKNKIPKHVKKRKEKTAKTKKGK

Homo sapiens [5] = species on record: Homo sapiens; experiment: Binding affinity to human partial length FLT3 ITD F691L mutant expressed in mammalian expression system assessed as residual activity at 1 uM by KINOMEscan assay relative to control
[6] = target: T2, Serine/threonine-protein kinase RIO3 (Homo sapiens) (UniProt O14730); experiment: Binding affinity to wild-type human full length RIOK3 (M1 to E519 residues) expressed in bacterial expression system assessed as residual activity at 1 uM by KINOMEscan assay relative to control
T2 sequence (whole entry): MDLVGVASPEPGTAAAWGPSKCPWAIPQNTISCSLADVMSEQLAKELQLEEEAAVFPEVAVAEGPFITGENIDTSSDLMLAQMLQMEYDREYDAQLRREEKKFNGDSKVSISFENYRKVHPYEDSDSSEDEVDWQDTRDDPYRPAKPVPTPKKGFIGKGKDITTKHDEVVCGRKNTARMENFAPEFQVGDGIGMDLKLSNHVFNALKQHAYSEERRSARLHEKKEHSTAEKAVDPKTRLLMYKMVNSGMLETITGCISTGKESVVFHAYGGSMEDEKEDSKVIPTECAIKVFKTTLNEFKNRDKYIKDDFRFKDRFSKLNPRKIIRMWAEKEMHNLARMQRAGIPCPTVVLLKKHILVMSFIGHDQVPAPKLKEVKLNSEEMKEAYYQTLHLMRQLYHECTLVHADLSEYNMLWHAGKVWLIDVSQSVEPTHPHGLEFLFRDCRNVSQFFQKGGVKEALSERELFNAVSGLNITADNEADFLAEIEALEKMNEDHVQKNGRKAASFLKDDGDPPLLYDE

[7] = Toxicity in CB17-SCID mouse xenografted with human MKN-1 cells assessed as mortality at 25 mg/kg, ip qd for 18 consecutive days; type: organism-based; conditions: in vivo, 432 h, time 18 day
[8] = Aqueous solubility of the compound; type: physicochemical; conditions: buffer
[9] = target: T2, Serine/threonine-protein kinase RIO3 (Homo sapiens); experiment: Binding affinity to RIOK3 in human MKN-1 cells assessed as negative shift in melting temperature at 5 uM incubated for 3 hrs followed by heat treatment at 52 to 62 degC for 3 mins by CETSA; type: cell-based; conditions: time 183.0 min
MKN-1 [10] = experiment: Antiproliferative activity against human MKN-1 cells assessed as cell growth inhibition incubated for 72 hrs by CCK-8 assay; conditions: MKN-1, 72 h
[11] = Oral bioavailability in Sprague-Dawley rat; type: ADME, organism-based; conditions: in vivo
[12] = Cmax in Sprague-Dawley rat administered orally; type: ADME; set-up: route po; conditions: in vivo, po
[13] = Toxicity in CB17-SCID mouse xenografted with human MKN-1 cells assessed as side effects at 25 mg/kg, ip qd for 18 consecutive days; type: organism-based; conditions: in vivo, 432 h, time 18 day
[14] = system: T3, Receptor-type tyrosine-protein kinase FLT3 (Homo sapiens), P36888 [D835V]; experiment: Binding affinity to human partial length FLT3 D835V mutant (V592 to Y969 residues) expressed in mammalian expression system assessed as residual activity at 1 uM by KINOMEscan assay relative to control
T3 sequence (whole entry): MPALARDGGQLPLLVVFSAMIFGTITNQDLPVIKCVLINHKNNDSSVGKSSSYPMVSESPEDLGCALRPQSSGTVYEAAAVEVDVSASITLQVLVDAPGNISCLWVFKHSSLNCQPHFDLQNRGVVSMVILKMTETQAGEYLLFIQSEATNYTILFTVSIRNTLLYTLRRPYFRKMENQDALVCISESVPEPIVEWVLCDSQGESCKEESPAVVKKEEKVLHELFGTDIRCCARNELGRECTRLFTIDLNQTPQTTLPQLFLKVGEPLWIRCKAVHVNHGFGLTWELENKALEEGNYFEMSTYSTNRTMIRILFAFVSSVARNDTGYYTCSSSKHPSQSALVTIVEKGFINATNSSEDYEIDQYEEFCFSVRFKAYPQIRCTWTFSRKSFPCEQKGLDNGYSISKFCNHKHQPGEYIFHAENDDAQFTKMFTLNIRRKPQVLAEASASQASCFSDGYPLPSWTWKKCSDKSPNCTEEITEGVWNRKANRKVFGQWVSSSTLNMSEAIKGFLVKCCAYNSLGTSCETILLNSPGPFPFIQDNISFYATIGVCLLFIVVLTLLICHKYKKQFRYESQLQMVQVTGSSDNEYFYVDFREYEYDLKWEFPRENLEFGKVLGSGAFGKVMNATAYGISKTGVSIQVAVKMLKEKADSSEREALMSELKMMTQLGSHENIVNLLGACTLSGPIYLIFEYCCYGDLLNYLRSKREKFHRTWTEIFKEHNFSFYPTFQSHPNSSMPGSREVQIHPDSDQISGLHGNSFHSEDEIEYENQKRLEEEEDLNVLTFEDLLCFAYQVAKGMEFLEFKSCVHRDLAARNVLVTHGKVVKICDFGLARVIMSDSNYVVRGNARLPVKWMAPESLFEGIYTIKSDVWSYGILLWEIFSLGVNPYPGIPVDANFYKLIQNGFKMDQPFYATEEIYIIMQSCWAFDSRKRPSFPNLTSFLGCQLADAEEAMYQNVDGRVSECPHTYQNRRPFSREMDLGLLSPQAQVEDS

[15] = target: T1, Serine/threonine-protein kinase RIO1 (Homo sapiens); experiment: Binding affinity to RIOK1 in human MKN-1 cells assessed as negative shift in melting temperature at 5 uM incubated for 3 hrs followed by heat treatment at 52 to 62 degC for 3 mins by CETSA; type: cell-based; conditions: time 183.0 min
HT-29 = experiment: Antiproliferative activity against human HT-29 cells assessed as cell growth inhibition incubated for 72 hrs by CCK-8 assay; conditions: HT-29, 72 h

Row | SMILES | inhibition in vivo at 25 mg/kg (MKN-1 [1]) [%] | Activity (Homo sapiens [2]) [%] | solubility [3] | Activity [4] [%] | Activity (Homo sapiens [5]) [%] | Activity [6] [%] | Activity [7] | solubility [8] | Activity [9] | IC50 (MKN-1 [10]) [µM] | bioavailability [11] [%] | Cmax [12] [ng/mL] | Activity [13] | Activity [14] [%] | Activity [15] | IC50 (HT-29) [µM]
1 | COc1ccc(-c2ccc3[nH]c(=O)c4nnn(-c5ccc(N6CCNCC6)c(C(F)(F)F)c5)c4c3c2)cn1 | 30.9 | 4 | Insoluble | 100 | 3.6 | 87 | Non-Toxic | Insoluble | Active | 0.61 | 3.06 | 13 | Non-Toxic | 28 | Active | 0.38
2 | COc1ccc(-c2ccc3[nH]c(=O)c4nnn(-c5ccccc5)c4c3c2)cn1 |  |  |  |  |  |  |  |  |  | > 8 |  |  |  |  |  | > 8
3 | Cc1ccnc(NC(=O)Cc2ccc3ccccc3c2)c1 |  |  |  |  |  |  |  |  |  | > 8 |  |  |  |  |  | > 8
